Measurements published in ChEMBL document CHEMBL4190168 (Medchemcomm, 2016).
Active and inactive are the calls of the source. No cut-off for these calls is given here.

How the values were obtained:
EA.hy 926 [1] = assay: Anti-migratory activity against human EAhy926 cells assessed as inhibition of VEGF-induced cell migration towards wound area after 24 hrs by phase contrast microscopic analysis; type: functional, cell-based
EA.hy 926 [2] = assay: Antiangiogenic activity in human EAhy926 cells assessed as inhibition of VEGF-induced capillary tube formation after 24 hrs by matrigel based phase contrast microscopic analysis; type: functional, cell-based
Chorioallantoic membrane = assay: Antiangiogenic activity in chicken fertilized egg chorioallantoic membrane at 30 uM after 48 hrs by microscopic analysis; type: functional, tissue-based; details: Gallus gallus
[3] = Solubility of the compound in water; type: physicochemical

Row | Structure (SMILES) | solubility [3] [µg/mL] | further results
1 | COc1ccc(-c2nc(CNCCCCCNCc3cc4c5ccccc5n(C)c4c(-c4ccc(OC)cc4)n3)cc3c4ccccc4n(C)c23)cc1 |  | inhibition (EA.hy 926 [1]): Dose-dependent effect; inhibition (EA.hy 926 [2]): Dose-dependent effect; Activity (Chorioallantoic membrane): Active
2 | COc1ccc(-c2nc(CNCCCCNCc3cc4c([nH]c5ccccc54)c(-c4ccc(OC)cc4)n3)cc3c2[nH]c2ccccc23)cc1.Cl | > 10000 | 
3 | Cl.c1ccc(Cn2c3ccccc3c3cc(CNCCCCCCNCc4cc5c6ccccc6n(Cc6ccccc6)c5c(-c5ccccc5)n4)nc(-c4ccccc4)c32)cc1 | > 10000 | 
4 | CCCCn1c2ccccc2c2cc(CNCCCCCNCc3cc4c5ccccc5n(CCCC)c4c(C(C)C)n3)nc(C(C)C)c21.Cl | > 10000 | 
5 | CCCCn1c2ccccc2c2cc(CNCCCCNCc3cc4c5ccccc5n(CCCC)c4c(-c4ccc(Cl)cc4)n3)nc(-c3ccc(Cl)cc3)c21.Cl | > 10000 | 
6 | Cc1nc(CNCCCCNCc2cc3c4ccccc4n(CC(C)C)c3c(C)n2)cc2c3ccccc3n(CC(C)C)c12.Cl | > 10000 | 
7 | Cc1nc(CNCCCNCc2cc3c4ccccc4n(CCCc4ccccc4)c3c(C)n2)cc2c3ccccc3n(CCCc3ccccc3)c12.Cl | > 10000 | 
